Experimental data: patent publication US20100092443A1, “NOVEL COMBINATIONS OF NITROGENATED HETEROCYCLIC ANTIBACTERIAL COMPOUNDS WITH OTHER ANTIBACTERIAL COMPOUNDS AND THE USE OF SAME AS DRUGS” (priority 2008, published 2010)
Where two headings read alike, the source gives them in different places.

Experiments:
Assay type in all cases: cell-based
Pseudomonas aeruginosa = experiment: MIC, dilutions in liquid medium, alone and combined with NXL105; details: Pseudomonas aeruginosa
Description: (§1) In vitro activity, method of dilutions in liquid medium:
A series of test 96-well microtiter plates are prepared in which the same quantity of sterile nutritive medium is distributed. Increasing quantities of the compound to be studied, namely the antibacterial compound alone and the inventive combination with the compound of formula (I) of example 1, are distributed in each plate in the respective proportions 2:1 and 4:1, and then each plate is inoculated with a bacterial strain of Pseudomonas aeruginosa. After 24 h of incubation in a 37° C. oven, growth inhibition is evaluated by transillumination, which makes it possible to determine the minimum inhibitory concentrations (MICS) expressed in μg/ml.

E. coli = experiment: microbe, parasite or virus in culture; details: Escherichia coli
Description: as §1
(§2) A series of test 96-well microtiter plates are prepared in which the same quantity of sterile nutritive medium is distributed. […] After 24 h of incubation in a 37° C. oven, growth inhibition is evaluated by transillumination, which makes it possible to determine the minimum inhibitory concentrations (MICS) expressed in μg/ml.

E. cloacae = experiment: MIC, dilutions in liquid medium, alone and combined with NXL105; details: Enterobacter cloacae, read-out: MIC
Description: as §1, §2

K. pneumoniae = experiment: as above; details: Klebsiella pneumoniae, read-out: MIC
Description: as §1, §2

K. oxytoca = experiment: as above; details: Klebsiella oxytoca, read-out: MIC
C. freundii = experiment: as above; details: Citrobacter freundii, read-out: MIC
E. aerogenes = experiment: as above; details: Klebsiella aerogenes, 24 h; E. aerogenes EAR2; Case-R + FEP-R; read-out: MIC

Measured: MIC

CC(C)(O/N=C(\C(=O)N[C@@H]1C(=O)N2C(C(=O)[O-])=C(C[n+]3ccccc3)CS[C@H]12)c1csc(N)n1)C(=O)O [Ceftazidime]
0.5 µg/mL: Pseudomonas aeruginosa; ATCC27853, P. aeruginosa ATCC 27853
> 32 µg/mL: Pseudomonas aeruginosa; P. aeruginosa 391HG2 | Pseudomonas aeruginosa; P. aeruginosa 391HG21 | Pseudomonas aeruginosa; P. aeruginosa 391HG38 | Pseudomonas aeruginosa; P. aeruginosa 391HG58 | Pseudomonas aeruginosa; P. aeruginosa 391HG158 | Pseudomonas aeruginosa; P. aeruginosa 391HG271 | Pseudomonas aeruginosa; P. aeruginosa 391HG329 | Pseudomonas aeruginosa; P. aeruginosa 391KB9 | Pseudomonas aeruginosa; P. aeruginosa 391KB21 | Pseudomonas aeruginosa; P. aeruginosa 391KB38 | Pseudomonas aeruginosa; P. aeruginosa 391KB62 | Pseudomonas aeruginosa; P. aeruginosa 391KB68 | Pseudomonas aeruginosa; P. aeruginosa 391KB90 | Pseudomonas aeruginosa; P. aeruginosa 391KB91 | Pseudomonas aeruginosa; P. aeruginosa 391KB99 | Pseudomonas aeruginosa; P. aeruginosa 391KB105 | Pseudomonas aeruginosa; P. aeruginosa 391KB107 | Pseudomonas aeruginosa; P. aeruginosa 391KB114 | Pseudomonas aeruginosa; P. aeruginosa 391KB127 | Pseudomonas aeruginosa; P. aeruginosa 391KB135 | Pseudomonas aeruginosa; P. aeruginosa 391KB136 | Pseudomonas aeruginosa; P. aeruginosa 391KB137 | Pseudomonas aeruginosa; P. aeruginosa 391KB138 | Pseudomonas aeruginosa; P. aeruginosa 391KB139 | Pseudomonas aeruginosa; P. aeruginosa 391KB141 | Pseudomonas aeruginosa; P. aeruginosa 391KB142 | Pseudomonas aeruginosa; P. aeruginosa 391KB143 | Pseudomonas aeruginosa; P. aeruginosa 391KB144 | Pseudomonas aeruginosa; P. aeruginosa 391QBR2 | Pseudomonas aeruginosa; P. aeruginosa 391QBR3 | Pseudomonas aeruginosa; P. aeruginosa 391QBR4 | Pseudomonas aeruginosa; P. aeruginosa 391QBR5 | Pseudomonas aeruginosa; P. aeruginosa 391QBR7 | Pseudomonas aeruginosa; P. aeruginosa 391QBR8 | Pseudomonas aeruginosa; P. aeruginosa 391QBR9 | Pseudomonas aeruginosa; P. aeruginosa 391QBR10 | Pseudomonas aeruginosa; P. aeruginosa C3719 | E. coli; 24 h, E. coli 2138, KPC-2 + TEM-1 | E. coli; 24 h, E. coli (no alias), CTX-M-15 + TEM-1 + OXA-1 | E. coli; 24 h, E. coli IND, VEB-1 + CMY-2 | E. coli; 24 h, E. coli TN13, CTX-M-14 + CMY-2 + TEM-1 | E. coli; 24 h, E. coli Tunisie clone E4, CTX-M-16 + TEM-1 | E. coli; E. coli (no alias), Cephalosporinase, read-out: MIC | E. coli; E. coli (no alias), SHV-4 | E. cloacae; 24 h, E. cloacae 7506, KPC-2 + TEM-1 + KLUC-2 | E. cloacae; E. cloacae (no alias), AmpC | K. pneumoniae; 24 h, K. pneumoniae 60, SHV-2 + TEM-2 + PER | K. pneumoniae; 24 h, K. pneumoniae 157, SHV-5 + TEM-26 | K. pneumoniae; 24 h, K. pneumoniae 181, SHV-5 + TEM-10 | K. pneumoniae; 24 h, K. pneumoniae 236, SHV-5 + TEM-10 | K. pneumoniae; 24 h, K. pneumoniae 238, SHV-2 + TEM-12 + CTX-M-2 | K. pneumoniae; 24 h, K. pneumoniae 243, SHV-5 + TEM-63 | K. pneumoniae; 24 h, K. pneumoniae 253, SHV-2 + TEM-12 + CTX-M-2 | K. pneumoniae; 24 h, K. pneumoniae 427, SHV-1 + TEM-1B + CTX-M-3 | K. pneumoniae; 24 h, K. pneumoniae 441, SHV-1 + TEM-2 + PER | K. pneumoniae; 24 h, K. pneumoniae 444, SHV-5 + TEM-2 + PER | K. pneumoniae; 24 h, K. pneumoniae 449, SHV-1 + TEM-2 + PER | K. pneumoniae; 24 h, K. pneumoniae 465, TEM-1B + CTX-M-2 | K. pneumoniae; 24 h, K. pneumoniae 1734, FOX-3 + TEM-1 | K. pneumoniae; 24 h, K. pneumoniae 9701, CMY-4 + TEM-1 | K. pneumoniae; 24 h, K. pneumoniae KOL, MOX-2 + SHV-5 + TEM-1 | K. pneumoniae; 24 h, K. pneumoniae Patient 1BHR, VIM-4 + CTX-M-15 = CMY-4 + TEM-1 | K. pneumoniae; 24 h, K. pneumoniae Patient F, VIM-1 + SHV-5 | K. pneumoniae; 24 h, K. pneumoniae SLK54, ACC-1 + TEM-1 | K. pneumoniae; 24 h, K. pneumoniae TN58467, DHA-1 + SHV-2a + TEM-1 | K. pneumoniae; 24 h, K. pneumoniae Tunisie clone K1, CTX-M-16 + OXA-1 | K. pneumoniae; 24 h, K. pneumoniae Tunisie clone K4, CTX-M-15 + TEM-1 + OXA-1 | K. pneumoniae; ATCC700603, K. pneumoniae ATCC 700603, SHV-18 | K. pneumoniae; K. pneumoniae 26, SHV-5 | K. pneumoniae; K. pneumoniae CL5761, KPC-3 | K. pneumoniae; K. pneumoniae CL5762, KPC-3 | K. pneumoniae; K. pneumoniae CL5763, KPC-3 | K. pneumoniae; K. pneumoniae VA8, KPC-3 | K. pneumoniae; K. pneumoniae VAKP, KPC-2 | K. pneumoniae; K. pneumoniae YC, KPC-2 | K. oxytoca; K. oxytoca 1431, TEM-129 | K. oxytoca; K. oxytoca 16944, OXY-2, TEM-1 | C. freundii; 24 h, C. freundii (no alias), AmpC + TEM-1 | C. freundii; C. freundii (no alias, table row r121), AmpC | C. freundii; C. freundii (no alias, table row r122), AmpC | C. freundii; C. freundii (no alias, table row r123), AmpC | E. aerogenes
16 µg/mL: Pseudomonas aeruginosa; P. aeruginosa 391K1523 | Pseudomonas aeruginosa; P. aeruginosa 391KB140 | E. coli; 24 h, E. coli TN06, CTX-M-2 + TEM-1 | C. freundii; C. freundii (no alias, table row r125), AmpC
1 µg/mL: Pseudomonas aeruginosa; P. aeruginosa 391HG39
4 µg/mL: Pseudomonas aeruginosa; P. aeruginosa 391HG118
32 µg/mL: Pseudomonas aeruginosa; P. aeruginosa 391HG123 | Pseudomonas aeruginosa; P. aeruginosa 391K1455 | Pseudomonas aeruginosa; P. aeruginosa 391K1525 | Pseudomonas aeruginosa; P. aeruginosa 391K1536 | Pseudomonas aeruginosa; P. aeruginosa 391K2376 | Pseudomonas aeruginosa; P. aeruginosa 391K2379 | Pseudomonas aeruginosa; P. aeruginosa 391K2415 | Pseudomonas aeruginosa; P. aeruginosa 391KB14 | Pseudomonas aeruginosa; P. aeruginosa 391KB33 | Pseudomonas aeruginosa; P. aeruginosa 391KB103 | Pseudomonas aeruginosa; P. aeruginosa 391KB106 | E. coli; E. coli (no alias), TEM-3 | E. cloacae; E. cloacae, AmpC | K. pneumoniae; K. pneumoniae KP04, CTX-M-14
